Data taken from patent US10071095B2, “1,2,4-triazolo [4,3-A] pyridine derivatives and their use for the treatment of neurological and psychiatric disorders” (JANSSEN PHARMACEUTICALS, INC., priority 2009, dated 2018).

Molecular target: T1, human mGluR2 receptor (Homo sapiens, UniProt Q14416)
T1 construct: expressed in transfected cells; host or cells: CHO cells
Experiment: [35S]GTPγS binding assay, positive allosteric modulation (GTPγS-PAM) in presence of EC20 glutamate
Format: biochemical
Details: in presence of glutamate at EC20; average pEC50 if more experiments; ‡ means tested once
Protocol: [^35S]GTPγS Binding Assay
The [^35S]GTPγS binding assay is a functional membrane-based assay used to study G-protein coupled receptor (GPCR) function whereby incorporation of a non-hydrolysable form of GTP, [^35S]GTPγS (guanosine 5′-triphosphate, labelled with […] ^35S), is measured. The G-protein α subunit catalyzes the exchange of guanosine 5′-diphosphate (GDP) by guanosine triphosphate (GTP) and on activation of the GPCR by an agonist, [^35S]GTPγS, becomes incorporated and cannot be cleaved to continue the exchange cycle (Harper (1998) Current Protocols in Pharmacology 2.6.1-10, John Wiley & Sons, Inc.). […] Here we describe the use of the [^35S]GTPγS binding assay using membranes from cells transfected with the human mGluR2 receptor and adapted from Schaffhauser et al. ((2003) Molecular Pharmacology 4:798-810) for the detection of the positive allosteric modulation (PAM) properties of the compounds of this invention.
CHO-cells were cultured to pre-confluence and stimulated with 5 mM butyrate for 24 h, prior to washing in PBS, and then collected by scraping in homogenisation buffer (50 mM Tris-HCl buffer, pH 7.4, 4° C.). Cell lysates were homogenized briefly using an ultra-turrax homogenizer. The homogenate was centrifuged at 16,000 RPM (Sorvall RC-5C plus rotor SS-34) for 10 minutes and the supernatant discarded. The pellet was resuspended in 5 mM Tris-HCl, pH 7.4 and centrifuged again (18,000 RPM, 20 min, 4° C.). The final pellet was resuspended in 50 mM Tris-HCl, pH 7.4 and stored at −80° C. in appropriate aliquots before use. Protein concentration was determined by the Bradford method (Bio-Rad, USA) with bovine serum albumin as standard.
Measurement of mGluR2 positive allosteric modulatory activity of test compounds was performed as follows. Test compounds and glutamate were diluted in assay buffer containing 10 mM HEPES acid, 10 mM HEPES salt, pH 7.4, 100 mM NaCl, 3 mM MgCl2 and 10 μM GDP. Human mGlu2 receptor-containing membranes were thawed on ice and diluted in assay buffer supplemented with 14 μg/ml saponin. Membranes were pre-incubated with compound alone or together with a predefined (˜EC20) concentration of glutamate (PAM assay) for 30 min at 30° C. After addition of [^35S]GTPγS (f.c. 0.1 nM) microplates were shaken briefly and further incubated to allow [^35S]GTPγS incorporation on activation (30 minutes, 30° C.). Final assay mixtures contained 7 μg of membrane protein in 10 mM HEPES acid, 10 mM HEPES salt, pH 7.4, 100 mM NaCl, 3 mM MgCl2, 10 µM GDP and 10 μg/ml saponin. Total reaction volume was 200 μl. Reactions were terminated by rapid filtration through Unifilter-96 GF/B filter plates (Packard, Meriden, Conn.) using a 96-well Packard filtermate harvester. Filters were washed 6 times with ice-cold 10 mM NaH2PO4/10 mM Na2HPO4, pH 7.4. Filters were then air-dried, and 40 μl of liquid scintillation cocktail (Microscint-O) was added to each well. Membrane-bound radioactivity was counted in a Microplate Scintillation and Luminescence Counter from Packard.
The concentration-response curves of representative compounds of the present invention-obtained in the presence of EC20 of mGluR2 agonist glutamate to determine positive allosteric modulation (PAM)—were generated using the Lexis software interface (developed at J&J).

T1 sequence (Q14416 19-872): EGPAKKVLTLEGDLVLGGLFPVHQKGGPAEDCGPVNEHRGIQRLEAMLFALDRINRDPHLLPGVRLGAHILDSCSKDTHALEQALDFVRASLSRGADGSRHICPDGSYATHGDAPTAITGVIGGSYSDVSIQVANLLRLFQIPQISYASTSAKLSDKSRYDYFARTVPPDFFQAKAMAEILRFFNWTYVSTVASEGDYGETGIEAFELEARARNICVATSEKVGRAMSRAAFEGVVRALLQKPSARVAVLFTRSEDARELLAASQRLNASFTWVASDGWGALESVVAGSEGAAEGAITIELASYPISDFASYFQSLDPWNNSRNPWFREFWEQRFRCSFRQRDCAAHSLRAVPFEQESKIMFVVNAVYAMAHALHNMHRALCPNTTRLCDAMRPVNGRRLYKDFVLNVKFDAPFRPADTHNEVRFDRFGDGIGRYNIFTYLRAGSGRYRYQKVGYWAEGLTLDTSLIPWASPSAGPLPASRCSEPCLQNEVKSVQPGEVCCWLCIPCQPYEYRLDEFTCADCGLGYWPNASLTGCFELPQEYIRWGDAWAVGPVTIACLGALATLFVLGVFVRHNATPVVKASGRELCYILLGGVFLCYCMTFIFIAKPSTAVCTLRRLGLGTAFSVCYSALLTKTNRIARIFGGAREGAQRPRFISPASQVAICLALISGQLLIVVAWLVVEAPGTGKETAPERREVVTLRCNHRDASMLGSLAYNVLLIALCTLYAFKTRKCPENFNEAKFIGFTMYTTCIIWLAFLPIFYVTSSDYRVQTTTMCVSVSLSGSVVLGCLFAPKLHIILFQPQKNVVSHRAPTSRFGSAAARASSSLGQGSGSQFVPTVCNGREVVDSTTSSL

| SMILES | GTPγS - hR2 PAM pEC50 |
| --- | --- |
| FC(F)(F)c1c(N2CCN(c3ncccn3)CC2)ccn2c(CC3CC3)nnc12 [compound 64] | 6.65 |
| COc1cccc(F)c1C1CCN(c2ccn3c(CC(F)(F)F)nnc3c2Cl)CC1 [compound 65] | 8.41 |
| CCCc1nnc2c(C(F)(F)F)c(N3CCC(c4ccccc4)CC3)ccn12 [compound 67] | 7.36 |
| Cc1cccnc1OC1CCN(c2ccn3c(CC4CC4)nnc3c2C(F)(F)F)CC1 [compound 68] | 7.55 |
| FC(F)(F)CCc1nnc2c(Cl)c(N3CCC(c4ccccc4)CC3)ccn12 [compound 71] | 6.65‡ |
| CC1(C)CN(c2ccn3c(CC4CC4)nnc3c2C(F)(F)F)CCN1c1ccccc1 [compound 72] | 7.06 |
| N#Cc1c(N2CCN(C3CCC(C(F)(F)F)CC3)CC2)ccn2c(CC(F)(F)F)nnc12 (stereo not shown) [compound 73] | 6.13 |
| CC(C)Cc1nnc2c(C#N)c(N3CCC(c4ccccc4)CC3)ccn12 [compound 74] | 6.85 |
| FC(F)(F)c1c(N2CCC3(CC2)OCc2ccccc23)ccn2c(CC3CC3)nnc12 [compound 77] | 7.68‡ |
| FC(F)(F)c1c(N2CCC3(CC2)COc2ccccc2O3)ccn2c(CC3CC3)nnc12 [compound 79] | 7.28 |
| FC(F)(F)c1c(N2CCC(F)(c3ccccc3)CC2)ccn2c(COCC3CC3)nnc12 [compound 80] | 7.27 |
| CCOCc1nnc2c(Cl)c(N3CCC(c4ccccc4OC)CC3)ccn12 [compound 82] | 7.51 |
| CCOCc1nnc2c(Cl)c(N3CCC(c4cc(F)ccc4OC)CC3)ccn12 [compound 83] | 7.64 |
| CCOCc1nnc2c(Cl)c(N3CCC(c4c(OC)ccc(F)c4F)CC3)ccn12 [compound 84] | 7.86 |
| CCOCc1nnc2c(Cl)c(N3CCC(c4c(F)cc(F)cc4OC)CC3)ccn12 [compound 85] | 8.06 |
| CCOCc1nnc2c(Cl)c(N3CCC(c4c(F)ccc(F)c4OC)CC3)ccn12 [compound 86] | 7.95 |
| CCCc1nnc2c(C(F)(F)F)c(N3CCC4(CC3)COc3ccccc34)ccn12 [compound 87] | 6.94 |
| CCCc1nnc2c(Cl)c(N3CCC4(CC3)COc3ccccc34)ccn12 [compound 88] | 6.18 |
| CCc1nnc2c(C(F)(F)F)c(N3CCC4(CC3)COc3ccccc34)ccn12 [compound 89] | 6.46‡ |

| SMILES | GTPγS - hR2 PAM pEC50 |
| --- | --- |
| COc1cnc(N2CCN(c3ccn4c(CC5CC5)nnc4c3C(F)(F)F)CC2)nc1 [compound 90] | 6.61 |
| COc1cccnc1C1CCN(c2ccn3c(CC4CC4)nnc3c2C(F)(F)F)CC1 [compound 91] | 7.27 |
| COc1cccnc1N1CCN(c2ccn3c(CC4CC4)nnc3c2C(F)(F)F)CC1 [compound 92] | 6.87 |
| CCCc1nnc2c(Cl)c(N3CCC4(CC3)OCc3ccccc34)ccn12 [compound 93] | 6.53 |
| CCCc1nnc2c(Cl)c(N3CCN(c4ccc(F)cc4F)CC3)ccn12 [compound 95] | 5.93‡ |
| Clc1c(N2CCN(c3ccccc3)CC2)ccn2c(CC3CC3)nnc12 [compound 99] | 6.03 |
| FC(F)(F)Cc1nnc2c(Cl)c(N3CCN(c4ccccc4)CC3)ccn12 [compound 101] | 6.24 |
| CCc1nnc2c(Cl)c(N3CCC4(CC3)OCc3ccccc34)ccn12 [compound 102] | 6.5 |
| CCOCc1nnc2c(Cl)c(N3CCN(c4ccccc4)C(C)(C)C3)ccn12 [compound 103] | 5.63‡ |
| CC1(C)OC2(CCN(c3ccn4c(CC5CC5)nnc4c3Cl)CC2)c2ccccc21 [compound 104] | 7.7 |
| CC1(C)CN(c2ccn3c(CC4CC4)nnc3c2Cl)CCN1c1ccccc1 [compound 105] | 6.17‡ |
| CCCc1nnc2c(Cl)c(N3CCC4(CC3)OCc3c(F)cccc34)ccn12 [compound 106] | 6.45 |
| CCCc1nnc2c(Cl)c(N3CCC4(CC3)OC(C)(C)c3ccccc34)ccn12 [compound 107] | 7.22 |
| Cl.Fc1cccc2c1COC21CCN(c2ccn3c(CC4CC4)nnc3c2Cl)CC1 [compound 108] | 6.91‡ |
| Fc1cccc2c1COC21CCN(c2ccn3c(CC4CC4)nnc3c2C(F)(F)F)CC1 [compound 109] | 7.29 |
| CCCc1nnc2c(C(F)(F)F)c(N3CCC4(CC3)OCc3c(F)cccc34)ccn12 [compound 110] | 6.86 |
| COc1cnc(C2CCN(c3ccn4c(CC5CC5)nnc4c3C(F)(F)F)CC2)nc1 [compound 111] | 6.26 |
| CCCc1nnc2c(C(F)(F)F)c(N3CCC4(CC3)OC(C)(C)c3ccccc34)ccn12 [compound 113] | 7.59 |
| FC(F)(F)Cc1nnc2c(Cl)c(N3CCC(Oc4ccccn4)CC3)ccn12 [compound 114] | 6.33 |

| SMILES | GTPγS - hR2 PAM pEC50 |
| --- | --- |
| Fc1cccc(C2(C(F)(F)F)CCN(c3ccn4c(CC5CC5)nnc4c3Cl)CC2)c1 [compound 117] | 6.68 |
| FC(F)(F)c1c(N2CCc3ccccc3C2)ccn2c(CC3CC3)nnc12 [compound 118] | 6.83 |
| N#Cc1c(N2CCC(c3ccccc3)(C(F)(F)F)CC2)ccn2c(CC3CC3)nnc12 [compound 120] | 6.31 |
| CC(C)OCc1nnc2c(C(F)(F)F)c(N3CCC(c4ccccc4)CC3)ccn12 [compound 122] | 7.3 |
| FC(F)(F)c1c(N2CCC(Oc3ccccn3)CC2)ccn2c(CC3CC3)nnc12 [compound 124] | 6.98 |
| CC(C)OCc1nnc2c(Cl)c(N3CCC(F)(c4ccccc4)CC3)ccn12 [compound 127] | 6.42 |
| FC(F)(F)c1c(N2CCC(Oc3ccccn3)CC2)ccn2c(CCC3CC3)nnc12 [compound 129] | 6.92 |
| FC(F)(F)c1c(N2Cc3ccccc3C2)ccn2c(CC3CC3)nnc12 [compound 130] | 6.4 |
| CCOCc1nnc2c(C(F)(F)F)c(N3CCC(Oc4ccccn4)CC3)ccn12 [compound 132] | 6.68 |
| CC1(c2ccccc2)CCN(c2ccn3c(CC4CC4)nnc3c2Cl)CC1 [compound 133] | 7.05 |
| CCOCc1nnc2c(C(F)(F)F)c(N3CCC(Oc4ncccc4C)CC3)ccn12 [compound 134] | 7.17 |
| CC(C)OCc1nnc2c(Cl)c(N3CCC(c4ccccc4)CC3)ccn12 [compound 135] | 6.77 |
| CCOCc1nnc2c(C(F)(F)F)c(N3CCC(c4ccccc4)CC3)ccn12 [compound 136] | 7.69‡ |
| FC(F)(F)c1c(N2CC(c3ccccc3)C2)ccn2c(CC3CC3)nnc12 [compound 137] | 6.87 |
| FC1(c2ccccc2)CCN(c2ccn3c(CCC4CC4)nnc3c2Cl)CC1 [compound 140] | 6.55 |
| CCOCc1nnc2c(C(F)(F)F)c(N3CCC(F)(c4ccccc4)CC3)ccn12 [compound 141] | 6.95 |
| CCCc1nnc2c(C(F)(F)F)c(N3CCC4(CC3)OC(F)(F)c3ccccc34)ccn12 [compound 142] | 6.55‡ |
| CC(C)OCc1nnc2c(Cl)c(N3CCC(c4ccccc4)(C(F)(F)F)CC3)ccn12 [compound 144] | 6.25 |

Same assay, conditions: in presence of glutamate at EC20; average pEC50 if more experiments; ‡ means tested once; read-out: GTPγS - hR2 PAM pEC50 (converted)

| SMILES | EC50 |
| --- | --- |
| FC(F)(F)c1c(N2CCC3(CC2)COc2ncccc23)ccn2c(CC3CC3)nnc12 [compound 119, 1′-[3-cyclopropylmethyl-8-(trifluoromethyl)[1,2,4]triazolo[4,3-a]pyridin-7-yl]-spiro[furo[2,3-b]pyridine-3(2H),4′-piperidine]] | 1740 nM |
| CC1(C)OC2(CCN(c3ccn4c(CC(F)(F)F)nnc4c3Cl)CC2)c2ccccc21 [compound 139] | 4.37 nM |
